{"source": "patent US12708673B2", "about": "“Methods and compositions related to peptides and proteins with c-terminal elements” (Sanford Burnham Prebys Medical Discovery Institute, priority 2008, dated 2026)", "key": {"4T1": {"tested_on": "4T1", "test": "RPARPAR phage binding to cultured cells at 4° C.", "assay_type": "cell-based", "settings": "4T1 breast cancer", "description": "(§1) FIG. 15A: Binding of RPARPAR (SEQ ID NO:2) phage to the cultured cells at 4° C. in vitro. FIG. 15B: Binding of RPARPAR (SEQ ID NO:2) phage to primary cell suspensions of mouse organs at 4° C. ex vivo. FIGS. 15C and 15D: Tissue distribution of intravenously injected RPARPAR (SEQ ID NO:2) phage after 20 minutes of circulation time. FIG. 15C: Phage was quantified by titration, tissue binding is expressed as fold G7 phage. Statistical analysis was performed by Student's t-test (c). n=3; error bars indicate s.d.; double asterisk, p<0.01, triple asterisk, p<0.001. FIG. 15D (panels d and e): Immunofluorescence localization of T7 phage (light coloring) in lung sections of mice injected intravenously with RPARPAR (SEQ ID NO:2) (d) or G7 (e) phage. Widespread immunoreactivity is present in the lungs of mice injected with RPARPAR (SEQ ID NO:2) (arrowheads in d) but not G7 (with occasional labeling seen in vessels, arrows in e). Scale bar: 50 μm.\n(§2) Phage display. For in vivo phage display, mice were injected intravenously with 10^10 plaque-forming units (pfu) of T7 phage followed by perfusion of the circulatory system and determination of the bound phage in target organs by titration. For cell binding studies on cultured cells (in vitro display) and organ-derived cell suspensions (ex vivo display), the cells were incubated with 10^9 pfu of phage at 4° C., washed, lysed, and quantified by titration. Incubation at 37° C. followed by low pH wash (glycine-HCl, pH 2.5) was used to assess the amount of internalized phage.\n(§3) For biopanning and phage binding studies (Hoffman, J. A. et al., 2004), cultured cells were grown to confluence and harvested with trypsin and mouse organs were dissociated using Medimachine (BD Biosciences, San Jose, CA). To measure phage binding, 10^6 cells in binding buffer (DMEM containing 1% BSA) were incubated with 10^9 pfu/ml of T7 phage for 1 hour at 4° C. The cells were washed 4 times with the binding buffer, lysed in LB bacterial growth medium containing 1% NP-40, and titrated. Phage internalization assays used the same procedure, except that the cells were incubated with the phage at 37° C., and that an acidic buffer (500 mM sodium chloride, 0.1 M glycine, 1% BSA, pH 2.5) was used instead of binding buffer in the second wash."}, "[1]": {"tested_on": "MDA-MB-435 human cancer cells", "test": "RPARPAR phage binding to cultured cells at 4° C.", "assay_type": "cell-based", "description": "as §1, §2, §3"}, "[2]": {"tested_on": "murine vascular endothelial cells (F2)", "test": "RPARPAR phage binding to cultured cells at 4° C.", "assay_type": "cell-based", "description": "as §1, §2, §3"}, "[3]": {"tested_on": "human umbilical vein endothelial cells (HUVEC)", "test": "RPARPAR phage binding to cultured cells at 4° C.", "assay_type": "cell-based", "description": "as §1, §2, §3"}, "MIA PaCa-2": {"tested_on": "MIA PaCa-2", "test": "RPARPAR phage binding to cultured cells at 4° C.", "assay_type": "cell-based", "settings": "MIA PaCa-2 pancreatic carcinoma", "description": "as §1, §2, §3"}, "B16F10": {"tested_on": "B16F10", "test": "RPARPAR phage binding to cultured cells at 4° C.", "assay_type": "cell-based", "settings": "B16F10 melanoma cells", "description": "as §1, §2, §3"}, "M21 melanoma cells": {"tested_on": "M21 melanoma cells", "test": "RPARPAR phage binding to cultured cells at 4° C.", "assay_type": "cell-based", "settings": "non-transfected M21", "description": "as §1, §2, §3"}, "PDAC1.3": {"tested_on": "PDAC1.3", "test": "RPARPAR phage binding to cultured cells at 4° C.", "assay_type": "cell-based", "settings": "PDAC1.3 pancreatic carcinoma", "description": "as §1, §2, §3"}, "PPC-1 cells [4]": {"tested_on": "PPC-1 cells", "test": "Binding and internalization of peptide-coated quantum dots by PPC-1 cells (confocal/fluorescence microscopy)", "assay_type": "cell-based, human", "settings": "excess of RPARPAR-displaying phage"}, "PPC-1 cells [5]": {"tested_on": "PPC-1 cells", "test": "T7 phage binding to PPC-1 (PPC1) cells at 4° C., quantified by titration/plaque assay", "assay_type": "cell-based, human", "description": "(§4) FIG. 2A: Binding of T7 phage to prostate cancer cells depends on the display of a C-terminal arginine on the phage particles. PPC1 cells were incubated with T7 bacteriophage displaying derivatives of the G7 (upper graph) or RPARPAR peptide (SEQ ID NO: 2) (lower graph) at 4° C., and the bound phage was quantified by plaque assay. Binding is expressed in fold over of the non-binding G7 control phage. FIG. 2B: Phage displaying C-terminal arginine is internalized into cultured PPC1 cells (arrow, nuclear internalization; arrowhead, cytoplasmic internalization). A panel of T7 phage clones were incubated at 37° C. with PPC1 cells grown on collagen-coated coverslips, stained with anti T7 antibody and imaged by confocal microscopy.\nas §2, §3\n(§5) Centrifugation on a silicone oil cushion (1.03 g/ml) was used to separate unbound phage from cells during time course experiments. Inhibitors of phage binding and internalization (heparin, chondroitin, glycocalyx removal enzymes, endocytosis inhibitors, free peptides, quantum dots and UV-inactivated phage) were added to the cells 20 minutes prior to incubation with phage. Endocytosis inhibitors used in this study were the following: nystatin (50 μg/ml), genistein (100 μg/ml), chlorpromazine (5 μg/ml), 5-(N-ethyl-N-isopropyl) amiloride (100 μM), wortmannin (10 μM)."}, "PPC-1 cells [6]": {"tested_on": "PPC-1 cells", "test": "T7 phage internalization into PPC-1 (PPC1) cells at 37° C. (acid wash and titration, or anti-T7 staining and confocal imaging)", "assay_type": "cell-based, human", "description": "as §4, §2, §3, §5\nImmunofluorescence staining. Cultured cells (2×10^5 cells) were grown in 6-well tissue culture plates on collagen-I coated coverslips (BD Biosciences, San Jose, CA) overnight at 37° C. in 5% CO2, and incubated with 10^8 pfu of T7 phage. The cells were fixed in 4% paraformaldehyde or cold (−20° C.) methanol, and stained with antibodies. Nuclei were stained with DAPI or […]. A polyclonal rabbit anti-T7 antibody was generated in-house as described previously (Laakkonen, P. et al. 2002b), except that an additional phage purification step using […] centrifugation was included. Other primary antibodies used were rat anti-mouse CD31 monoclonal antibody (BD Biosciences), rabbit anti-NRP-1, mouse anti-human Lamp-1, mouse anti-human caveolin (Millipore, Temecula, CA), mouse anti-NRP-1 (Miltenyi Biotec Inc., Auburn, CA), mouse anti-human EEA-1 (BD Biosciences, San Jose, CA). The secondary antibodies, Alexa594 goat antibodies to mouse, rat, and rabbit immunoglobulins and Alexa488 donkey anti-rabbit antibody were from Invitrogen (Carlsbad, CA). Cells and tissue sections were examined by confocal microscopy (Fluoview 500, Olympus America Inc., Center Valley, PA)."}}, "note": "Entries after “also recorded” stand apart in the source; their conditions may differ."}
{"substance": "RPARPAR [RPARPAR phage]", "values": [{"measurement": "Phage binding", "setting": "4T1", "result": "bound"}, {"measurement": "Phage binding", "setting": "[1]", "result": "bound"}, {"measurement": "Phage binding", "setting": "[2]", "result": "binding was also seen"}, {"measurement": "Phage binding", "setting": "[3]", "result": "binding was also seen"}, {"measurement": "Phage binding", "setting": "MIA PaCa-2", "result": "bound"}, {"measurement": "Phage binding", "setting": "B16F10", "result": "bound"}, {"measurement": "Phage binding over control phage", "setting": "M21 melanoma cells", "result": "did not bind; also recorded: do not bind nor internalize"}, {"measurement": "Phage binding", "setting": "PDAC1.3", "result": "bound"}, {"measurement": "Effect of pre-incubation of cells with excess phage on RPARPAR-Q-dot internalization", "setting": "PPC-1 cells [4]", "result": "inhibited"}, {"measurement": "Phage binding to PPC-1 cells (in words)", "setting": "PPC-1 cells [5]; 4° C.", "result": "stronger binding than the GGGGGGR; also recorded: robust binding and internalization"}, {"measurement": "Time to plateau of phage binding", "setting": "PPC-1 cells [5]; 4° C.", "result": 20, "unit": "min"}, {"measurement": "Phage binding after trypsin treatment of PPC-1 cells", "setting": "PPC-1 cells [5]; trypsin treatment of cells prior to binding, data not shown", "result": "decreased binding"}, {"measurement": "Effect of pre-incubation with UV-inactivated phage on iRGD phage internalization", "setting": "PPC-1 cells [6]", "result": "decreased"}, {"measurement": "Phage internalization into PPC-1 cells (in words)", "setting": "PPC-1 cells [6]; 37° C.", "result": "robust binding and internalization"}, {"measurement": "Time to perinuclear accumulation", "setting": "PPC-1 cells [6]; phage, 37° C.", "result": 1, "unit": "h"}, {"measurement": "Time to plasma membrane association", "setting": "PPC-1 cells [6]; phage, 37° C.", "result": 15, "unit": "min"}]}
